Patent US9550772B2, “Azaindole derivatives as multi kinase inhibitors” (ORIBASE PHARMA, priority 2012, dated 2017)
Read-outs that look alike come from different tables or passages of the source.

How the values were obtained:
[1] = target: T1, BRAF (Homo sapiens, UniProt P15056); assay: In vitro kinase assay (Z'-LYTE, Invitrogen); format: biochemical; conditions: compound at 100 nM, ATP Km apparent, read-out: % of inhibition of the kinase compared to the control
T1 construct: purchased Invitrogen
Description: (§1) The inhibitory activity of the compounds on 7 kinases (BRAF, EGFR (ErbB1), EGFR (ErbB1) T790M L858R, FGFR2, KDR (VEGFR2), PDGFRA (PDGFR alpha), SRC) was evaluated by Invitrogen using the Z′-LYTE® technology. Briefly, the Z′-LYTE® biochemical assay employs a fluorescence-based, coupled-enzyme format and is based on the differential sensitivity of phosphorylated and non-phosphorylated peptides to proteolytic cleavage. The peptide substrate is labeled with two fluorophores—one at each end—that make up a FRET pair. A ratiometric method, which calculates the ratio (the Emission Ratio) of donor emission to acceptor emission after excitation of the donor fluorophore at 400 nm, is used to quantitate reaction progress.
(§2) The compounds are screened in 1% DMSO (final) in the well. For 10 point titrations, 3-fold serial dilutions are conducted from the starting concentration. All Peptide/Kinase Mixtures are diluted to a 2× working concentration in the appropriate Kinase Buffer. All ATP Solutions are diluted to a 4× working concentration in Kinase Buffer (50 mM HEPES pH 7.5, 0.01% BRIJ-35, 10 mM MgCl2, 1 mM EGTA). ATP Km apparent is previously determined using a Z′-LYTE® assay.
(§3) Each compound was incubated at a concentration of 100 nM and the tables 21 to 27 summarize the results obtained showing the inhibitory power of a compound.

[2] = target: T2, EGFR (ErbB1) (Homo sapiens, UniProt P00533); assay: In vitro kinase assay (Z'-LYTE, Invitrogen); format: biochemical; conditions: compound at 100 nM, ATP Km apparent, read-out: % of inhibition of the kinase compared to the control
T2 construct: purchased Invitrogen
Description: as §1, §2, §3

[3] = target: T3, FGFR2 (Homo sapiens, UniProt P21802); assay: In vitro kinase assay (Z'-LYTE, Invitrogen); format: biochemical; conditions: compound at 100 nM, ATP Km apparent, read-out: % of inhibition of the kinase compared to the control
T3 construct: purchased Invitrogen
Description: as §1, §2, §3

[4] = target: T4, KDR (VEGFR2) (Homo sapiens, UniProt P35968); assay: In vitro kinase assay (Z'-LYTE, Invitrogen); format: biochemical; conditions: compound at 100 nM, ATP Km apparent, read-out: % of inhibition of the kinase compared to the control
T4 construct: purchased Invitrogen
Description: as §1, §2, §3

[5] = test system: A549 cell line; assay: In vitro cell proliferation assay (MTT); format: cell-based; conditions: Homo sapiens, A549, 72 h, read-out: EC50, anti-proliferative activity
Description: (§4) Cancer cell lines (5×10^3 cells per well) or HUVEC (1×10^4 cells per well) or HRMEC (1×10^4 cells per well) were distributed in 96-well plates and incubating in duplicate with escalating concentrations (10 nM to 3 μM) of compounds for 72 hr. Cell proliferation was measured using MTT (3[4,5-dimethylthiazol-2-yl]-2,5-diphenyltetrazolium bromide). The EC50 values were calculated from sigmoidal dose-response curves utilizing Prism 5.0 from Graph-Pad Software (GraphPad Software, La Jolla, Calif., USA), with values normalized to those of DMSO-treated control wells (0%) and 1% SDS control wells (100%).

[6] = test system: HUVEC cells; assay: In vitro cell proliferation assay (MTT); format: cell-based; conditions: Homo sapiens, 72 hr, read-out: EC50, anti-proliferative activity
Description: as §4

[7] = test system: HeLa cell line; assay: In vitro cell proliferation assay (MTT); format: cell-based; conditions: Homo sapiens, 72 hr, read-out: EC50, anti-proliferative activity
Description: as §4

[8] = test system: HepG2 cell line; assay: In vitro cell proliferation assay (MTT); format: cell-based; conditions: Homo sapiens, HepG2, 72 hr, read-out: EC50, anti-proliferative activity
Description: as §4

[9] = test system: MDA-MB-231 cell line; assay: In vitro cell proliferation assay (MTT); format: cell-based; conditions: Homo sapiens, MDA-MB-231, 72 hr, read-out: EC50, anti-proliferative activity
Description: as §4

[10] = target: T5, PDGFRA (PDGFR alpha) (Homo sapiens, UniProt P16234); assay: In vitro kinase assay (Z'-LYTE, Invitrogen); format: biochemical; conditions: compound at 100 nM, ATP Km apparent, read-out: % of inhibition of the kinase compared to the control
T5 construct: purchased Invitrogen
Description: as §1, §2, §3

[11] = target: T6, SRC (Homo sapiens, UniProt P12931); assay: In vitro kinase assay (Z'-LYTE, Invitrogen); format: biochemical; conditions: compound at 100 nM, ATP Km apparent, read-out: % of inhibition of the kinase compared to the control
T6 construct: purchased Invitrogen
Description: as §1, §2, §3

T6 sequence (P12931 whole entry): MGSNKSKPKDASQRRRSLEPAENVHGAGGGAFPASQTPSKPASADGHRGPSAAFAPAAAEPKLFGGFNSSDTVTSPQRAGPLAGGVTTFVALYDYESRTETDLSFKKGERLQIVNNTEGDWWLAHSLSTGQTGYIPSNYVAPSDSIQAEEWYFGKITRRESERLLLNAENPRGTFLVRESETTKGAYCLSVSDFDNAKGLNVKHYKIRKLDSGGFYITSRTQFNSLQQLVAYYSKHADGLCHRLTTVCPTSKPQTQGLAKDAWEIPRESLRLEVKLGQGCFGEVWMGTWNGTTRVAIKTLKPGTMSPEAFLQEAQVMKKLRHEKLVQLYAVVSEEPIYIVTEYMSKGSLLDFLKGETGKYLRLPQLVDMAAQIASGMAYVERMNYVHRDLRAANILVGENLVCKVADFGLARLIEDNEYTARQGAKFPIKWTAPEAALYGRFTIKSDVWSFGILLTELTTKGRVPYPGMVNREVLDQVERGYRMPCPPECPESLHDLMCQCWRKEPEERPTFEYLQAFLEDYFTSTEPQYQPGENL
T5 sequence (P16234 24-1089): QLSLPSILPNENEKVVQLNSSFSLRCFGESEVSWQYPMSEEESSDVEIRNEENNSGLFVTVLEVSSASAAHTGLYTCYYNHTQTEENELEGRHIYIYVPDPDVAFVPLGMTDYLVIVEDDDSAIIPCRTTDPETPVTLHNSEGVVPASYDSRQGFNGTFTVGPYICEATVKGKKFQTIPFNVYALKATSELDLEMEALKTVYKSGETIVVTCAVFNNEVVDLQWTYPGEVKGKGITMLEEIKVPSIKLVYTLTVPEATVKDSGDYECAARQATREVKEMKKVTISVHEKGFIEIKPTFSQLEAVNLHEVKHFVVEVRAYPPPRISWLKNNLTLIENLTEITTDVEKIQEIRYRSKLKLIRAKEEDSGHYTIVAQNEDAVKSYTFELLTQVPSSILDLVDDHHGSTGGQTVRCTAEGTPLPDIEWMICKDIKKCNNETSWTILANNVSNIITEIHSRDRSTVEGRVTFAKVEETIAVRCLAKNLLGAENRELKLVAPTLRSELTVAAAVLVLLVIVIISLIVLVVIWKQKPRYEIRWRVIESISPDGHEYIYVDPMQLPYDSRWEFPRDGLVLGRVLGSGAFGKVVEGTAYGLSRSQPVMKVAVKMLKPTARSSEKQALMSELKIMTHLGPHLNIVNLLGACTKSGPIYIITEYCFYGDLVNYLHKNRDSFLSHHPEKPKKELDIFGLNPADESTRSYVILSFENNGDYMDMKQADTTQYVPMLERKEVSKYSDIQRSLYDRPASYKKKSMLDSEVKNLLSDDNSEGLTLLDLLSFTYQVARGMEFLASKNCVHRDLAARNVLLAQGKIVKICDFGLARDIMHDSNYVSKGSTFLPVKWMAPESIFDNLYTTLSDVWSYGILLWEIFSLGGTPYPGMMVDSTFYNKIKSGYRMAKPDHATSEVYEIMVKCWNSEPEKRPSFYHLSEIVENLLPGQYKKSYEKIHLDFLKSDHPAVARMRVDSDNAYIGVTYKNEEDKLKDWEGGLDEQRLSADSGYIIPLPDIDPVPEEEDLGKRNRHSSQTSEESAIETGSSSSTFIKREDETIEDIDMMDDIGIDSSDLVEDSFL
T2 sequence (P00533 25-1210): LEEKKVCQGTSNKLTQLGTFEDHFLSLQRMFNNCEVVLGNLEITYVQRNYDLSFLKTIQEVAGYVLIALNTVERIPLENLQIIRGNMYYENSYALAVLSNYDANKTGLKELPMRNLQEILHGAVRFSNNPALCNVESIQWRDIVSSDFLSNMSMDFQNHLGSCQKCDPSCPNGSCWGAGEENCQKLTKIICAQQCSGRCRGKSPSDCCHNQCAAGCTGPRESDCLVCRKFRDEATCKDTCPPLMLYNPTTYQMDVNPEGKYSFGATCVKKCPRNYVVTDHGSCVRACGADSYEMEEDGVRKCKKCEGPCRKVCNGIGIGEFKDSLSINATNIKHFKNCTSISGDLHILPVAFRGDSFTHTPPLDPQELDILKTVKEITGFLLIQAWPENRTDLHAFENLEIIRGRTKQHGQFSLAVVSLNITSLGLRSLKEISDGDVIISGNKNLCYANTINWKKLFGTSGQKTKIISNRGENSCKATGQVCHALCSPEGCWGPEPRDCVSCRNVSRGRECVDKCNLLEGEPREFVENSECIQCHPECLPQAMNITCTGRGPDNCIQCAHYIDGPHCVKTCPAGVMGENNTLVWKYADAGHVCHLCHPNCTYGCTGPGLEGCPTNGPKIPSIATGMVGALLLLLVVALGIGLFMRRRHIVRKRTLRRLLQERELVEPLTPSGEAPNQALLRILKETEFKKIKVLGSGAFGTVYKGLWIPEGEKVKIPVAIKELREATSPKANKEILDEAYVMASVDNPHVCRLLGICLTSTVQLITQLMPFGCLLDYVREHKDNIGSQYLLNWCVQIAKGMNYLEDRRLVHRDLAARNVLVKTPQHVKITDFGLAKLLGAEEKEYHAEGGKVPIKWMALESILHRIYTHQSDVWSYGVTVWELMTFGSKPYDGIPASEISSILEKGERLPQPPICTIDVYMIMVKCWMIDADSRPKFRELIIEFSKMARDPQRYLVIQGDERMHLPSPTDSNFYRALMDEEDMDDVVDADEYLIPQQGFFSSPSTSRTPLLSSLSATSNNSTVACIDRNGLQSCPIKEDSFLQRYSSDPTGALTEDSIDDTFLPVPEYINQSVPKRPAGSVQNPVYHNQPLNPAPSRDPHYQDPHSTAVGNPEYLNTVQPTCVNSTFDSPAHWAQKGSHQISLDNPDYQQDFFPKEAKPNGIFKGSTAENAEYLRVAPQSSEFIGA
T1 sequence (P15056 whole entry): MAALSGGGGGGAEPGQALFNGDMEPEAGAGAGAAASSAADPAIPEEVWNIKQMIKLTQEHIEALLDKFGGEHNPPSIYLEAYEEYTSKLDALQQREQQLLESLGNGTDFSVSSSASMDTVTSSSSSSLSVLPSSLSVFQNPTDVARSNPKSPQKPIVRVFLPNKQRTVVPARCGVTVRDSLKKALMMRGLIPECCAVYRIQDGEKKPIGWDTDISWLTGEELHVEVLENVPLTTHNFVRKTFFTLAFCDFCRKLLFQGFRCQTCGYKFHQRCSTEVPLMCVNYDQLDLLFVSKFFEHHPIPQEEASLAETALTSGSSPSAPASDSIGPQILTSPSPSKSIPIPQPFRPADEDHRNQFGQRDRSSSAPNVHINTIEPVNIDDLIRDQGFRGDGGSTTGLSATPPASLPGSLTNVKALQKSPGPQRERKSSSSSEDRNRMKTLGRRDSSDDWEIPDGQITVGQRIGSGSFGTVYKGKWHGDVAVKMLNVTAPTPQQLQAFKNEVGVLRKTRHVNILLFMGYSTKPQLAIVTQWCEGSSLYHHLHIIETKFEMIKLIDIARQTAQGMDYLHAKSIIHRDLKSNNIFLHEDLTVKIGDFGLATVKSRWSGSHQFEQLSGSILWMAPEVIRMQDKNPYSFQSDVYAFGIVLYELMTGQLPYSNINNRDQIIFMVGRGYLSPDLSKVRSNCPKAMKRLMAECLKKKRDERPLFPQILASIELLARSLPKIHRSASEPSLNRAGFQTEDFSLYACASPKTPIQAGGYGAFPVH
T3 sequence (P21802 22-821): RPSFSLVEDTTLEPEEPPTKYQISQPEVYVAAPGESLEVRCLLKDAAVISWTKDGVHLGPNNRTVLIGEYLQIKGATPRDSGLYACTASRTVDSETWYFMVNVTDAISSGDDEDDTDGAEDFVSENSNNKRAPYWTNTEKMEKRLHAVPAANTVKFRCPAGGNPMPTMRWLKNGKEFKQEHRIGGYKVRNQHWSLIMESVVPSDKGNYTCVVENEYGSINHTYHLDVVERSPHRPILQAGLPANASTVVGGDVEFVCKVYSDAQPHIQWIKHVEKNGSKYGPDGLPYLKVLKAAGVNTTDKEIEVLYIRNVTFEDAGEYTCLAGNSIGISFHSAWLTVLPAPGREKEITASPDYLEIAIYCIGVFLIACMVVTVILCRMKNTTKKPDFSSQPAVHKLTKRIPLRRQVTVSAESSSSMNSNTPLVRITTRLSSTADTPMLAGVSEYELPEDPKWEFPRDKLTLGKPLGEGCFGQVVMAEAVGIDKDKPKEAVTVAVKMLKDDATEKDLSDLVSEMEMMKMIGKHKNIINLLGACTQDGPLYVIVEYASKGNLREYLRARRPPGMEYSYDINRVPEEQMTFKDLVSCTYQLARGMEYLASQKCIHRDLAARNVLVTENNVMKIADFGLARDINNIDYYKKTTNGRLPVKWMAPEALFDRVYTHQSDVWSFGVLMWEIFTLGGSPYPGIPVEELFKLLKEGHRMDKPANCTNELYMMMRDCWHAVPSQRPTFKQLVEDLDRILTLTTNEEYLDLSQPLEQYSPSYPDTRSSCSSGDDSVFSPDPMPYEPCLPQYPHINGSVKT

| SMILES | inhibition at 0.1 µM [1] [%] | inhibition at 0.1 µM [2] [%] | inhibition at 0.1 µM [3] [%] | inhibition at 0.1 µM [4] [%] | EC50 ([5]; EC50 ≧ 1 μM) [nM] | EC50 ([7]; EC50 ≧ 1 μM) [nM] | EC50 ([8]; EC50 ≧ 1 μM) [nM] | EC50 ([9]; EC50 ≧ 1 μM) [nM] | inhibition at 0.1 µM [10] [%] | inhibition at 0.1 µM [11] [%] | EC50 ([9]; 100 nM < EC50 < 1 μM) [nM] | EC50 ([5]; 100 nM < EC50 < 1 μM) [nM] | EC50 ([7]; 100 nM < EC50 < 1 μM) [nM] | EC50 ([8]; 100 nM < EC50 < 1 μM) [nM] | EC50 ([6]; 100 nM < EC50 < 1 μM) [nM] | EC50 ([6]; EC50 ≧ 1 μM) [nM] | EC50 ([6]; EC50 ≦ 100 nM) [nM] |
| --- | --- | --- | --- | --- | --- | --- | --- | --- | --- | --- | --- | --- | --- | --- | --- | --- | --- |
| COC(=O)c1cc2cc(CCc3cccc(CNC(=O)c4ccc(CN5CCN(C)CC5)c(C(F)(F)F)c4)c3)cnc2[nH]1 [OR1018, 5-[2-(3-{[4-(4-Methyl-piperazin-1-ylmethyl)-3-trifluoromethyl-benzoylamino]-methyl}-phenyl)-ethyl]-1H-pyrrolo[2,3-b]pyridine-2-carboxylic acid methyl ester] | < 50 | < 50 | < 50 | ≥ 50 | ≥ 1000 | ≥ 1000 | ≥ 1000 | ≥ 1000 |  |  |  |  |  |  |  | ≥ 1000 |  |
| COC(=O)c1cc2cc(CCc3cccc(NC(=O)c4cc[nH]c4)c3)cnc2[nH]1 [OR0976, 5-(2-{3-[(1H-Pyrrole-3-carbonyl)-amino]-phenyl}-ethyl)-1H-pyrrolo[2,3-b]pyridine-2-carboxylic acid methyl ester] | < 50 | < 50 | < 50 | < 50 |  |  | ≥ 1000 |  | < 50 | < 50 |  |  |  |  |  | ≥ 1000 |  |
| COC(=O)c1cc2cc(CCc3ccc(C)c(NC(=O)c4ccc(CN5CCC(N(C)C)C5)c(C(F)(F)F)c4)c3)cnc2[nH]1 (stereo not shown) [OR1044, 5-(2-{5-[4-(3-Dimethylamino-pyrrolidin-1-ylmethyl)-3-trifluoromethyl-benzoylamino]-4-methyl-phenyl}-ethyl)-1H-pyrrolo[2,3-b]pyridine-2-carboxylic acid methyl ester] | < 50 | ≥ 50 | ≥ 50 | ≥ 50 | ≥ 1000 |  | ≥ 1000 | ≥ 1000 |  |  |  |  | 100 to 1000 |  | 100 to 1000 |  |  |
| CC(=O)c1cc2cc(CCc3cc(NC(=S)Nc4cccc(C(F)(F)F)c4)ccc3C)cnc2[nH]1 [OR1017, 1-{3-[2-(2-Acetyl-1H-pyrrolo[2,3-b]pyridin-5-yl)-ethyl]-4-methyl-phenyl}-3-(3-trifluoromethyl-phenyl)-thiourea] | < 50 | < 50 | < 50 | < 50 | ≥ 1000 | ≥ 1000 |  | ≥ 1000 |  |  |  |  |  | 100 to 1000 |  | ≥ 1000 |  |
| COC(=O)c1cc2cc(C=Cc3cccc(C(=O)Nc4cccc(C(F)(F)F)c4)c3)cnc2[nH]1 [OR1046, 5-{2-[3-(3-Trifluoromethyl-phenylcarbamoyl)-phenyl]-vinyl}-1H-pyrrolo[2,3-b]pyridine-2-carboxylic acid methyl ester] |  |  |  |  | ≥ 1000 | ≥ 1000 | ≥ 1000 | ≥ 1000 |  |  |  |  |  |  |  | ≥ 1000 |  |
| COC(=O)c1cc2cc(CCc3cccc(NC(=O)c4cncc(C(F)(F)F)c4)c3)cnc2[nH]1 [OR0981, 5-(2-{3-[(5-Trifluoromethyl-pyridine-3-carbonyl)-amino]-phenyl}-ethyl)-1H-pyrrolo[2,3-b]pyridine-2-carboxylic acid methyl ester] | ≥ 50 | < 50 | < 50 | ≥ 50 |  |  | ≥ 1000 |  | ≥ 50 | ≥ 50 |  |  |  |  |  | ≥ 1000 |  |

Continued, in another order:

| inhibition at 0.1 µM [1] [%] | inhibition at 0.1 µM [2] [%] | inhibition at 0.1 µM [3] [%] | inhibition at 0.1 µM [4] [%] | EC50 ([5]; EC50 ≧ 1 μM) [nM] | EC50 ([7]; EC50 ≧ 1 μM) [nM] | EC50 ([8]; EC50 ≧ 1 μM) [nM] | EC50 ([9]; EC50 ≧ 1 μM) [nM] | inhibition at 0.1 µM [10] [%] | inhibition at 0.1 µM [11] [%] | EC50 ([9]; 100 nM < EC50 < 1 μM) [nM] | EC50 ([5]; 100 nM < EC50 < 1 μM) [nM] | EC50 ([7]; 100 nM < EC50 < 1 μM) [nM] | EC50 ([8]; 100 nM < EC50 < 1 μM) [nM] | SMILES | EC50 ([6]; 100 nM < EC50 < 1 μM) [nM] | EC50 ([6]; EC50 ≧ 1 μM) [nM] | EC50 ([6]; EC50 ≦ 100 nM) [nM] |
| --- | --- | --- | --- | --- | --- | --- | --- | --- | --- | --- | --- | --- | --- | --- | --- | --- | --- |
| < 50 | ≥ 50 | ≥ 50 | ≥ 50 | ≥ 1000 | ≥ 1000 | ≥ 1000 | ≥ 1000 |  |  |  |  |  |  | COC(=O)c1cc2cc(CCc3cc(NC(=O)c4ccc(CN5CCC(N(C)C)C5)c(C(F)(F)F)c4)ccc3Cl)cnc2[nH]1 (stereo not shown) [OR1007, 5-(2-{2-Chloro-5-[4-(3-dimethylamino-pyrrolidin-1-ylmethyl)-3-trifluoromethyl-benzoylamino]-phenyl}-ethyl)-1H-pyrrolo[2,3-b]pyridine-2-carboxylic acid methyl ester] | 100 to 1000 |  |  |
| < 50 | < 50 | < 50 | ≥ 50 | ≥ 1000 | ≥ 1000 | ≥ 1000 | ≥ 1000 |  |  |  |  |  |  | COC(=O)c1cc2cc(CNCc3cccc(NC(=O)c4ccc(CN5CCN(C)CC5)c(C(F)(F)F)c4)c3)cnc2[nH]1 [OR1020, 5-({3-[4-(4-Methyl-piperazin-1-ylmethyl)-3-trifluoromethyl-benzoylamino]-benzylamino}-methyl)-1H-pyrrolo[2,3-b]pyridine-2-carboxylic acid methyl ester] |  | ≥ 1000 |  |
| < 50 | < 50 | < 50 | < 50 |  |  | ≥ 1000 |  | < 50 | < 50 |  |  |  |  | COC(=O)c1cc2cc(CCc3cccc(NC(=O)c4ccc5[nH]nnc5c4)c3)cnc2[nH]1 [OR0977, 5-(2-{3-[(1H-Benzotriazole-5-carbonyl)-amino]-phenyl}-ethyl)-1H-pyrrolo[2,3-b]pyridine-2-carboxylic acid methyl ester] |  | ≥ 1000 |  |
| < 50 | < 50 | < 50 | < 50 |  |  | ≥ 1000 |  | ≥ 50 | < 50 |  |  |  |  | COC(=O)c1cc2cc(CCc3cc(NC(=O)Nc4cccc(C(F)(F)F)c4)ccc3C)cnc2[nH]1 [OR0918, 5-(2-{2-Methyl-5-[3-(3-trifluoromethyl-phenyl)-ureido]-phenyl}-ethyl)-1H-pyrrolo[2,3-b]pyridine-2-carboxylic acid methyl ester] |  | ≥ 1000 |  |
| < 50 | ≥ 50 | < 50 | ≥ 50 | ≥ 1000 | ≥ 1000 | ≥ 1000 |  |  |  | 100 to 1000 |  |  |  | COC(=O)c1cc2cc(NCCc3cccc(NC(=O)c4ccc(CN5CCN(C)CC5)c(C(F)(F)F)c4)c3)cnc2[nH]1 [OR1019, 5-(2-{3-[4-(4-Methyl-piperazin-1-ylmethyl)-3-trifluoromethyl-benzoylamino]-phenyl}-ethylamino)-1H-pyrrolo[2,3-b]pyridine-2-carboxylic acid methyl ester] |  | ≥ 1000 |  |
| < 50 | ≥ 50 | ≥ 50 | ≥ 50 |  |  | ≥ 1000 |  |  |  | 100 to 1000 | 100 to 1000 | 100 to 1000 |  | COC(=O)c1cc2cc(CCc3cc(NC(=O)c4ccc(CN5CCN(C)CC5)c(C(F)(F)F)c4)ccc3Cl)cnc2[nH]1 [OR1006, 5-(2-{2-Chloro-5-[4-(4-methyl-piperazin-1-ylmethyl)-3-trifluoromethyl-benzoylamino]-phenyl}ethyl)-1H-pyrrolo[2,3-b]pyridine-2-carboxylic acid methyl ester] |  |  | ≤ 100 |
